Results reported in US20250073226A1, “USE OF OPIOID FOR TREATMENT OF AUTISM SPECTRUM DISORDERS” (priority 2021, published 2025).
“And” between values parts separate entries of the source, which are not always exact repeats. Equal entries are not always repeated. Marks after values point to notes of the source that are not given here.

Experiment: Pharmacokinetic: drug concentrations in plasma by LC-MS after subcutaneous administration
Conditions: for concentration at 0.5 h: Plasma concentration 0.5 hr; for concentration at 1 h: Plasma concentration 1 hr; for concentration at 3 h: Plasma concentration 3 hr; for concentration at 12 h: Plasma concentration 12 hr; for concentration at 24 h: Plasma concentration 24 hr
[1] = ICR mice, buprenorphine 0.1 μg/kg s.c., individual samples
[2] = ICR mice, buprenorphine 0.3 μg/kg s.c., individual samples
[3] = ICR mice, buprenorphine 3 μg/kg s.c., individual samples
[4] = ICR mice, buprenorphine 10 μg/kg s.c., individual samples
[5] = ICR mice, buprenorphine 30 μg/kg s.c., individual samples
[6] = ICR, mouse, plasma, sc, 0.1 μg/kg, ICR mice, buprenorphine 0.1 μg/kg s.c., Mean
[7] = ICR, mouse, plasma, sc, 0.1 μg/kg, ICR mice, buprenorphine 0.1 μg/kg s.c., individual samples
[8] = ICR, mouse, plasma, sc, 0.3 μg/kg, ICR mice, buprenorphine 0.3 μg/kg s.c., Mean
[9] = ICR, mouse, plasma, sc, 0.3 μg/kg, ICR mice, buprenorphine 0.3 μg/kg s.c., individual samples
[10] = ICR, mouse, plasma, sc, 1 μg/kg, ICR mice, buprenorphine 1 μg/kg s.c., Measured value
[11] = ICR, mouse, plasma, sc, 3 μg/kg, ICR mice, buprenorphine 3 μg/kg s.c., Mean
[12] = ICR, mouse, plasma, sc, 3 μg/kg, ICR mice, buprenorphine 3 μg/kg s.c., individual samples
[13] = ICR, mouse, plasma, sc, 10 μg/kg, ICR mice, buprenorphine 10 μg/kg s.c., Mean
[14] = ICR, mouse, plasma, sc, 10 μg/kg, ICR mice, buprenorphine 10 μg/kg s.c., individual samples
[15] = ICR, mouse, plasma, sc, 30 μg/kg, ICR mice, buprenorphine 30 μg/kg s.c., Mean
[16] = ICR, mouse, plasma, sc, 30 μg/kg, ICR mice, buprenorphine 30 μg/kg s.c., individual samples

## CO[C@]12CC[C@@]3(C[C@@H]1[C@](C)(O)C(C)(C)C)[C@H]1Cc4ccc(O)c5c4[C@@]3(CCN1CC1CC1)[C@H]2O5 [buprenorphine, 21-cyclopropyl-7-a-[(S)-1-hydroxy-1,2,2-trimethylpropyl]-6,14-endo-ethano-6,7,8,14 tetrahydrooripavine]
[1]
  Plasma concentration 0.5 hr: 6.85 pg/mL and 6.52 pg/mL
  Plasma concentration 1 hr: 4.66 pg/mL and 5.36 pg/mL
  Plasma concentration 3 hr: BLQ (BLQ: LLOQ (lower limit of quantitation: 2 pg/mL) or less)
  Plasma concentration 12 hr: BLQ (BLQ: LLOQ (lower limit of quantitation: 2 pg/mL) or less)
  Plasma concentration 24 hr: BLQ (BLQ: LLOQ (lower limit of quantitation: 2 pg/mL) or less)
[2]
  Plasma concentration 0.5 hr: 26 pg/mL and 30.9 pg/mL
  Plasma concentration 1 hr: 13.7 pg/mL and 16.5 pg/mL
  Plasma concentration 3 hr: 5.08 pg/mL and 4.87 pg/mL
  Plasma concentration 12 hr: BLQ (BLQ: LLOQ (lower limit of quantitation: 2 pg/mL) or less)
  Plasma concentration 24 hr: BLQ (BLQ: LLOQ (lower limit of quantitation: 2 pg/mL) or less)
ICR mice, buprenorphine 1 μg/kg s.c.
  Cmax: 0.067 ng/mL
[3]
  Plasma concentration 0.5 hr: 260 pg/mL and 271 pg/mL
  Plasma concentration 1 hr: 119 pg/mL and 127 pg/mL
  Plasma concentration 3 hr: 47.6 pg/mL and 83.3 pg/mL
  Plasma concentration 12 hr: 0.00358 ng/mL and 0.00346 ng/mL
  Plasma concentration 24 hr: BLQ (BLQ: LLOQ (lower limit of quantitation: 2 pg/mL) or less)
ICR mice, buprenorphine 10 μg/kg s.c.
  Cmax: 0.67 ng/mL
[4]
  Plasma concentration 0.5 hr: 711* pg/mL and 666* pg/mL
  Plasma concentration 1 hr: 471* pg/mL and 367* pg/mL
  Plasma concentration 3 hr: 145 pg/mL and 135 pg/mL
  Plasma concentration 12 hr: 0.0171 ng/mL and 0.0271 ng/mL and 0.00669 ng/mL
  Plasma concentration 24 hr: BLQ (BLQ: LLOQ (lower limit of quantitation: 2 pg/mL) or less)
ICR mice, buprenorphine 30 μg/kg s.c.
  Cmax: 2.36 ng/mL
[5]
  Plasma concentration 0.5 hr: 2560* pg/mL and 2770* pg/mL
  Plasma concentration 1 hr: 1480* pg/mL and 1670* pg/mL
  Plasma concentration 3 hr: 436* pg/mL and 494* pg/mL
  Plasma concentration 12 hr: 0.0312 ng/mL and 0.0727 ng/mL and 0.0313 ng/mL
  Plasma concentration 24 hr: 0.00768 ng/mL and 0.0042 ng/mL
ICR, mouse, plasma, sc, 0.1 ug/kg
  Cmax: 0.00778 ng/mL
[6]
  concentration at 0.5 h: 0.00778 ng/mL
  concentration at 1 h: 0.00485 ng/mL
  concentration at 3 h: 0.001 ng/mL
  concentration at 12 h: 0 ng/mL
  concentration at 24 h: 0 ng/mL
[7]
  concentration at 0.5 h: 0.00998 ng/mL
  concentration at 1 h: 0.00452 ng/mL
  concentration at 3 h: 0.00299 ng/mL
ICR, mouse, plasma, sc, 0.3 ug/kg
  Cmax: 0.0266 ng/mL
[8]
  concentration at 0.5 h: 0.0266 ng/mL
  concentration at 1 h: 0.0148 ng/mL
  concentration at 3 h: 0.00477 ng/mL
  concentration at 12 h: 0 ng/mL
  concentration at 24 h: 0 ng/mL
[9]
  concentration at 0.5 h: 0.0228 ng/mL
  concentration at 1 h: 0.0143 ng/mL
  concentration at 3 h: 0.00436 ng/mL
ICR, mouse, plasma, sc, 1 ug/kg
  Cmax: 0.067 ng/mL
[10]
  concentration at 0.5 h: 0.067 ng/mL
  concentration at 1 h: 0.025 ng/mL
  concentration at 3 h: 0.02 ng/mL
ICR, mouse, plasma, sc, 3 ug/kg
  Cmax: 0.268 ng/mL
[11]
  concentration at 0.5 h: 0.268 ng/mL
  concentration at 1 h: 0.126 ng/mL
  concentration at 3 h: 0.0641 ng/mL
  concentration at 12 h: 0.00312 ng/mL
  concentration at 24 h: 0 ng/mL
[12]
  concentration at 0.5 h: 0.274 ng/mL
  concentration at 1 h: 0.132 ng/mL
  concentration at 3 h: 0.0613 ng/mL
  concentration at 12 h: 0.00231 ng/mL
ICR, mouse, plasma, sc, 10 ug/kg
  Cmax: 0.67 ng/mL
[13]
  concentration at 0.5 h: 0.67 ng/mL
  concentration at 1 h: 0.399 ng/mL
  concentration at 3 h: 0.147 ng/mL
  concentration at 12 h: 0.017 ng/mL
  concentration at 24 h: 0.000777 ng/mL
[14]
  concentration at 0.5 h: 0.632 ng/mL
  concentration at 1 h: 0.358 ng/mL
  concentration at 3 h: 0.16 ng/mL
  concentration at 24 h: 0.00233 ng/mL
ICR, mouse, plasma, sc, 30 ug/kg
  Cmax: 2.36 ng/mL
[15]
  concentration at 0.5 h: 2.36 ng/mL
  concentration at 1 h: 1.49 ng/mL
  concentration at 3 h: 0.447 ng/mL
  concentration at 12 h: 0.0451 ng/mL
  concentration at 24 h: 0.00551 ng/mL
[16]
  concentration at 0.5 h: 1.76 ng/mL
  concentration at 1 h: 1.32 ng/mL
  concentration at 3 h: 0.412 ng/mL
  concentration at 24 h: 0.00464 ng/mL
